Assay results taken from US20240150345A1, “GCN2 MODULATING COMPOUNDS AND USES THEREOF” (HiberCell, Inc., priority 2021, published 2024).

These compounds were tested against T1, GCN2 (Homo sapiens, UniProt Q9P2K8) (assay: TR-FRET biochemical assay for inhibition of GCN2 activity). Settings: 2 nM GCN2, 100 nM GFP-eIF2α, 150 μM ATP, 1.5 hours at 25° C.
T1 construct: purchased Carma Biosciences (so in the source)
T1 sequence (Q9P2K8 whole entry): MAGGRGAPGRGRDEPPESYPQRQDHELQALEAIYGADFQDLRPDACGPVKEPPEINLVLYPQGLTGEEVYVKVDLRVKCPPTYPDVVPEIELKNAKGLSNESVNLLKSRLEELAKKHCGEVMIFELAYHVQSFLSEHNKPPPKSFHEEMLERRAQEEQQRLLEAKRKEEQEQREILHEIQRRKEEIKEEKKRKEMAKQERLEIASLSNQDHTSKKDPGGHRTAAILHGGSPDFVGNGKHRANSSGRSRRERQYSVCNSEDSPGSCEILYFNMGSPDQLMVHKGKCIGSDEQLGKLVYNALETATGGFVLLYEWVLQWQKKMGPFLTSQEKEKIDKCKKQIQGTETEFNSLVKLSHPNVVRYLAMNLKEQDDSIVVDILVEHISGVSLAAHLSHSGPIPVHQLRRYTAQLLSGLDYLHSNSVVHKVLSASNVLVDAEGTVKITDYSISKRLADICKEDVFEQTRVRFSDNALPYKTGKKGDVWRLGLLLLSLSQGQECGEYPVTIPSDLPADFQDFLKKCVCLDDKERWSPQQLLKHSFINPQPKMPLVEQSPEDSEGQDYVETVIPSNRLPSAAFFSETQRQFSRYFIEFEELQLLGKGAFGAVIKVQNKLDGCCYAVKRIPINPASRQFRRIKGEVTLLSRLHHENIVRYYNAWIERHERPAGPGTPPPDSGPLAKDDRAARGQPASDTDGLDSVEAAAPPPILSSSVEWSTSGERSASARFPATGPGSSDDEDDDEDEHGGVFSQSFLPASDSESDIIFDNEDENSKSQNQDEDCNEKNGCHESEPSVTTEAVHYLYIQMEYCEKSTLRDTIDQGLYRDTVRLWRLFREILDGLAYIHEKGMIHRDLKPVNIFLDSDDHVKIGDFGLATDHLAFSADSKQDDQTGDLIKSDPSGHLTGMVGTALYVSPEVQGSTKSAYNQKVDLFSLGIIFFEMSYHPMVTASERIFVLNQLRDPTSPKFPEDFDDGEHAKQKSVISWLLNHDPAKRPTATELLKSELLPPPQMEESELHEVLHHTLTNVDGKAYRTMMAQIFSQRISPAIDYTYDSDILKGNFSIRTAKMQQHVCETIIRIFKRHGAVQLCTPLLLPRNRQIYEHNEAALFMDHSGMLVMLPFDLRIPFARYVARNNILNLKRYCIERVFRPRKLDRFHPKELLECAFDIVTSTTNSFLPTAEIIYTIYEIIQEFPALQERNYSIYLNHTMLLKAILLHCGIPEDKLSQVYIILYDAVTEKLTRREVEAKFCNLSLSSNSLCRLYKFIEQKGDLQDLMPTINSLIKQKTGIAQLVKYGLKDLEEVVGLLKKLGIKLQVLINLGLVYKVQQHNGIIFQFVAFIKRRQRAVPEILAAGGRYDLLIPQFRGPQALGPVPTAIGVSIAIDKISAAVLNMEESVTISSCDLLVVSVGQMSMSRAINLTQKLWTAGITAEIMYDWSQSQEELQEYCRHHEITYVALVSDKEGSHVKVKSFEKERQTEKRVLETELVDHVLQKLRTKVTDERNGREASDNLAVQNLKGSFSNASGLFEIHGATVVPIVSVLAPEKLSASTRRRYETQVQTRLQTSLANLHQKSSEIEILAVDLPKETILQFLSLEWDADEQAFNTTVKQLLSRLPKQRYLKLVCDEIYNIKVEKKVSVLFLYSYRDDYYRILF
Experimental: Exemplary compounds from the above Examples were tested for ability to inhibit GCN2 activity using a time resolved fluorescence energy transfer (TR-FRET) assay. Assay procedures and results are described below for Examples 12-105.
GCN2 protein was obtained from Carma Biosciences (cat #05-153). The protein was diluted in assay buffer (ThermoFisher Scientific, #PV6135), 2 mM dithiothreitol (DTT), to obtain a final concentration of 2 nM and 5 μL was plated in a 384-well white assay plate. Test compounds were serially diluted to 11 concentrations by 3-fold dilution in DMS0 and 10 nL of stock was plated into 384 well white assay plate. DMS0 was used as a vehicle control. GFP-eIF2α protein was obtained from ThermoFisher (cat #PV4809). The protein was diluted in assay buffer to a 2× concentration of 200 nM along with 300 μM ATP (final concentration of 100 nM GFP-eIF2α and 150 μM ATP) in the presence of 2 mM DTT and a […] was added to each well containing the GCN2 protein and test compound. The plate was incubated in the dark at 25° C. for 1.5 hours, shaking at 1250 rpm. Tb-anti P-eIF2α (ThermoFisher cat #PV4815) was diluted to a to a concentration of 1 nM in TR-FRET Dilution Buffer (ThermoFisher cat #PV3574). 10 μL of the Tb-anti P-eIF2a solution was added to the TR-FRET reaction. The plate was incubated in the dark for 2 h at 25° C. shaking at 600 rpm. The FRET signal from the plate was read on a Envision (PerkinElmer) plate reader: • Label 1: Excitation: 340 nm, bandwidth 30 nm; Emission: 495 nm, bandwidth 10 nm. Lag time: 100 μsec. Integration time: 400 μsec. Flashes: 30. • Label 2: Excitation: 340 nm, bandwidth 30 nm; Emission: 520 nm, bandwidth 25 nm. Lag time: 100 μsec. Integration time: 400 μsec. Flashes: 30
The data were analyzed using GraphPad Prism employing a 4-parameter sigmoidal curve fit.
In the case of Cc1ncc(F)cc1S(=O)(=O)Nc1ccc(F)c(COc2cnc3[nH]ncc3c2)c1F [Compound 30, N-(3-(((1H-pyrazolo[3,4-b]pyridin-5-yl)oxy)methyl)-2,4-difluorophenyl)-5-fluoro-2-methylpyridine-3-sulfonamide], the IC50 is reported as < 0.05 µM.
CNc1nccn2c(CCc3c(F)ccc(NS(=O)(=O)c4cc(Cl)cnc4OC)c3F)cnc12 [Compound 31, 5-chloro-N-(2,4-difluoro-3-(2-(8-(methylamino)imidazo[1,2-a]pyrazin-3-yl)ethyl)phenyl)-2-methoxypyridine-3-sulfonamide] was tested, and the IC50 was < 0.05 µM.
With COc1ncc(Cl)cc1S(=O)(=O)Nc1ccc(F)c(CCc2cnc3c(N)nccn23)c1F [Compound 32, N-[3-(2-[8-aminoimidazo[1,2-a]pyrazin-3-yl]ethyl)-2,4-difluorophenyl]-5-chloro-2-methoxypyridine-3-sulfonamide] the IC50 was < 0.05 µM.
For CCn1ncc2ncc(CCc3c(F)ccc(NS(=O)(=O)c4cc(Cl)cnc4OC)c3F)cc21 [Compound 33, 5-chloro-N-[3-(2-[1-ethylpyrazolo[4,3-b]pyridin-6-yl]ethyl)-2,4-difluorophenyl]-2-methoxypyridine-3-sulfonamide], the IC50 was < 0.05 µM.
In the case of CCn1ncc2ncc(CCc3c(F)ccc(NS(=O)(=O)c4cc(F)cnc4OC)c3F)cc21 [Compound 34, N-[3-(2-[1-ethylpyrazolo[4,3-b]pyridin-6-yl]ethyl)-2,4-difluorophenyl]-5-fluoro-2-methoxypyridine-3-sulfonamide], the IC50 is reported as < 0.05 µM.
In the case of COc1ncc(Cl)cc1S(=O)(=O)Nc1ccc(F)c(CCc2cnc3cnn(C(C)C)c3c2)c1F [Compound 35, 5-chloro-N-[2,4-difluoro-3-(2-[1-isopropylpyrazolo[4,3-b]pyridin-6-yl]ethyl)phenyl]-2-methoxypyridine-3-sulfonamide], the IC50 is reported as < 0.05 µM.
For COc1ncc(F)cc1S(=O)(=O)Nc1ccc(F)c(CCc2cnc3cnn(C(C)C)c3c2)c1F [Compound 36, N-[2,4-difluoro-3-(2-[1-isopropylpyrazolo[4,3-b]pyridin-6-yl]ethyl)phenyl]-5-fluoro-2-methoxypyridine-3-sulfonamide], the IC50 was 0.05 to 0.5 µM.
With COc1ncc(F)cc1S(=O)(=O)Nc1ccc(F)c(CCc2cnc3cn(C(C)C)nc3c2)c1F [Compound 37, N-[2,4-difluoro-3-(2-[2-isopropylpyrazolo[4,3-b]pyridin-6-yl]ethyl)phenyl]-5-fluoro-2-methoxypyridine-3-sulfonamide] the IC50 was 0.05 to 0.5 µM.
With Cc1ncc(F)cc1S(=O)(=O)Nc1ccc(F)c(COc2cnc3[nH]nc(C)c3c2)c1F [Compound 38, N-[2,4-difluoro-3-[([3-methyl-1H-pyrazolo[3,4-b]pyridin-5-yl]oxy)methyl]phenyl]-5-fluoro-2-methylpyridine-3-sulfonamide] the IC50 was < 0.05 µM.
CCc1n[nH]c2ncc(OCc3c(F)ccc(NS(=O)(=O)c4cc(F)cnc4OC)c3F)cc12 [Compound 39, N-[3-[([3-ethyl-1H-pyrazolo[3,4-b]pyridin-5-yl]oxy)methyl]-2,4-difluorophenyl]-5-fluoro-2-methoxypyridine-3-sulfonamide] was tested, and the IC50 was < 0.05 µM.
With CCc1n[nH]c2ncc(OCc3c(F)ccc(NS(=O)(=O)c4cc(Cl)cnc4OC)c3F)cc12 [Compound 40, 5-chloro-N-[3-[([3-ethyl-1H-pyrazolo[3,4-b]pyridin-5-yl]oxy)methyl]-2,4-difluorophenyl]-2-methoxypyridine-3-sulfonamide] the IC50 was < 0.05 µM.
In the case of CCc1n[nH]c2ncc(OCc3c(F)ccc(NS(=O)(=O)c4cc(C#N)cnc4OC)c3F)cc12 [Compound 41, 5-cyano-N-[3-[([3-ethyl-1H-pyrazolo[3,4-b]pyridin-5-yl]oxy)methyl]-2,4-difluorophenyl]-2-methoxypyridine-3-sulfonamide], the IC50 is reported as < 0.05 µM.
With COc1ncc(Cl)cc1S(=O)(=O)Nc1ccc(F)c(COc2cnc3cnn(C)c3c2)c1F [Compound 42, 5-chloro-N-[2,4-difluoro-3-[([1-methylpyrazolo[4,3-b]pyridin-6-yl]oxy)methyl]phenyl]-2-methoxypyridine-3-sulfonamide] the IC50 was < 0.05 µM.
For COc1ncc(F)cc1S(=O)(=O)Nc1ccc(F)c(COc2cnc3cnn(C)c3c2)c1F [Compound 43, N-[2,4-difluoro-3-[([1-methylpyrazolo[4,3-b]pyridin-6-yl]oxy)methyl]phenyl]-5-fluoro-2-methoxypyridine-3-sulfonamide], the IC50 was < 0.05 µM.
For COc1ncc(F)cc1S(=O)(=O)Nc1ccc(F)c(COc2cnc3[nH]nc(C(F)(F)F)c3c2)c1F [Compound 44, N-[2,4-difluoro-3-([[3-(trifluoromethyl)-1H-pyrazolo[3,4-b]pyridin-5-yl]oxy]methyl)phenyl]-5-fluoro-2-methoxypyridine-3-sulfonamide], the IC50 was < 0.05 µM.
In the case of COc1ncc(F)cc1S(=O)(=O)Nc1ccc(F)c(OCc2cnc3[nH]nc(C)c3c2)c1F [Compound 45, N-[2,4-difluoro-3-([3-methyl-1H-pyrazolo[3,4-b]pyridin-5-yl]methoxy)phenyl]-5-fluoro-2-methoxypyridine-3-sulfonamide], the IC50 is reported as < 0.05 µM.
With COc1ncc(Cl)cc1S(=O)(=O)Nc1ccc(F)c(OCc2cnc3[nH]nc(C)c3c2)c1F [Compound 46, 5-chloro-N-[2,4-difluoro-3-([3-methyl-1H-pyrazolo[3,4-b]pyridin-5-yl]methoxy)phenyl]-2-methoxypyridine-3-sulfonamide] the IC50 was < 0.05 µM.
For CCc1n[nH]c2ncc(OCc3c(F)ccc(NS(=O)(=O)c4cc(F)cnc4C)c3F)cc12 [Compound 47, N-[3-[([3-ethyl-1H-pyrazolo[3,4-b]pyridin-5-yl]oxy)methyl]-2,4-difluorophenyl]-5-fluoro-2-methylpyridine-3-sulfonamide], the IC50 was < 0.05 µM.
With COc1ncc(C#N)cc1S(=O)(=O)Nc1ccc(F)c(OCc2cnc3[nH]nc(C)c3c2)c1F [Compound 48, 5-cyano-N-(2,4-difluoro-3-((3-methyl-1H-pyrazolo[3,4-b]pyridin-5-yl)methoxy)phenyl)-2-methoxypyridine-3-sulfonamide] the IC50 was 0.05 to 0.5 µM.
COc1ncc(C#N)cc1S(=O)(=O)Nc1ccc(F)c(NCc2cnc3[nH]nc(C)c3c2)c1F [Compound 49, 5-cyano-N-[2,4-difluoro-3-[([3-methyl-1H-pyrazolo[3,4-b]pyridin-5-yl]methyl)amino]phenyl]-2-methoxypyridine-3-sulfonamide] gave an IC50 of 0.05 to 0.5 µM.
With COc1ncc(C#N)cc1S(=O)(=O)Nc1ccc(F)c(COc2cnc3[nH]nc(C)c3c2)c1F [Compound 50, 5-cyano-N-[2,4-difluoro-3-[([3-methyl-1H-pyrazolo[3,4-b]pyridin-5-yl]oxy)methyl]phenyl]-2-methoxypyridine-3-sulfonamide] the IC50 was < 0.05 µM.
Compound Cc1ncc(F)cc1S(=O)(=O)Nc1ccc(F)c(OCc2cnc3[nH]nc(C)c3c2)c1F [Compound 51, N-[2,4-difluoro-3-([3-methyl-1H-pyrazolo[3,4-b]pyridin-5-yl]methoxy)phenyl]-5-fluoro-2-methylpyridine-3-sulfonamide] has an IC50 of 0.05 to 0.5 µM.
With COc1ncc(F)cc1S(=O)(=O)Nc1ccc(F)c(COc2cnc3[nH]nc(C(C)C)c3c2)c1F [Compound 52, N-[2,4-difluoro-3-[([3-isopropyl-1H-pyrazolo[3,4-b]pyridin-5-yl]oxy)methyl]phenyl]-5-fluoro-2-methoxypyridine-3-sulfonamide] the IC50 was < 0.05 µM.
